Experimental data from the kinase profiling compilation of Christmann-Franck et al. (2016).

Legend:
[1] = target: AAK1 (human) (UniProt Q2M2I8); experiment: KINOMEscan competition binding; settings: compound 10.0 µM
[2] = target: BMPR1B (human) (UniProt O00238); experiment: KINOMEscan competition binding; settings: compound 10.0 µM
[3] = target: CAMKK1 (human) (UniProt Q8N5S9); experiment: KINOMEscan competition binding; settings: compound 10.0 µM
[4] = target: CDK16 (human) (UniProt Q00536); experiment: KINOMEscan competition binding; settings: compound 10.0 µM
Sequence of CDK16 (human) (Q00536 whole entry, looked up): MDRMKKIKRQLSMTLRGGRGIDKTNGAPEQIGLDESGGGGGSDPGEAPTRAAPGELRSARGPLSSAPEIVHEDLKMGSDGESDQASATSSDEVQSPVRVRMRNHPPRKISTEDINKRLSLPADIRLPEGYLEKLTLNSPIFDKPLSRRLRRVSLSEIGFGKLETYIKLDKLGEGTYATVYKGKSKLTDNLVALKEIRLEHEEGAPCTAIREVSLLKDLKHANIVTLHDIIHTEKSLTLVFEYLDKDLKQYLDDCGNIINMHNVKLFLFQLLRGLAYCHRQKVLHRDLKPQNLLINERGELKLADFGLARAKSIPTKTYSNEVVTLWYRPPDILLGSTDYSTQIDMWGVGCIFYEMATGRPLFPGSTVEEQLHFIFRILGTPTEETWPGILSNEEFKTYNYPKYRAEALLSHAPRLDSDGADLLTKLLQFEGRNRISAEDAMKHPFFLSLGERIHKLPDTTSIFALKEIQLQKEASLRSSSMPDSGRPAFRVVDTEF

[5] = target: CDK7 (human) (UniProt P50613); experiment: KINOMEscan competition binding; settings: compound 10.0 µM
Sequence of CDK7 (human) (P50613 whole entry, looked up): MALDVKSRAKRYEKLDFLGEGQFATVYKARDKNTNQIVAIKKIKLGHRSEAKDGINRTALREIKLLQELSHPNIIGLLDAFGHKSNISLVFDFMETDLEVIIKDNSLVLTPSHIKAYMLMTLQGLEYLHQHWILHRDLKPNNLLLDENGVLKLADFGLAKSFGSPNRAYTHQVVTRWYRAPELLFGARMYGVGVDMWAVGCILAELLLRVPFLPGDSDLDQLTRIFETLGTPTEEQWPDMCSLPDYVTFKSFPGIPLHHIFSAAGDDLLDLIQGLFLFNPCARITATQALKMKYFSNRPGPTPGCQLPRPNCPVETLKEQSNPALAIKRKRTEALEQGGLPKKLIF

[6] = target: CLK1 (human) (UniProt P49759); experiment: KINOMEscan competition binding; settings: compound 10.0 µM
[7] = target: CLK2 (human) (UniProt P49760); experiment: KINOMEscan competition binding; settings: compound 10.0 µM
Sequence of CLK2 (human) (P49760 whole entry, looked up): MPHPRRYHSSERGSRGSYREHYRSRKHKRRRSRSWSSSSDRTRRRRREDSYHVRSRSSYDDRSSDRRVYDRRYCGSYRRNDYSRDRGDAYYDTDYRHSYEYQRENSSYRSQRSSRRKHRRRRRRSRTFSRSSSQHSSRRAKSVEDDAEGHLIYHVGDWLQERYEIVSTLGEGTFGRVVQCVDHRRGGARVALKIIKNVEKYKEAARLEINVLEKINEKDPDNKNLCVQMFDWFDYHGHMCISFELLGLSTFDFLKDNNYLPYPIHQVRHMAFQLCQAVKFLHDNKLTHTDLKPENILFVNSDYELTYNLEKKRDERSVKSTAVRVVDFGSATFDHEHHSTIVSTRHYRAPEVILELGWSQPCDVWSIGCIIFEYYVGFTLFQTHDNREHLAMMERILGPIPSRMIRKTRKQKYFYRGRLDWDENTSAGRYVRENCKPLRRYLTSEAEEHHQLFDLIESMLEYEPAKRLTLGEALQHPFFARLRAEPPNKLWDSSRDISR

[8] = target: CLK3 (human) (UniProt P49761); experiment: KINOMEscan competition binding; settings: compound 10.0 µM
[9] = target: CLK4 (human) (UniProt Q9HAZ1); experiment: KINOMEscan competition binding; settings: compound 10.0 µM
[10] = target: CSNK2A1 (human) (UniProt P68400); experiment: KINOMEscan competition binding; settings: compound 10.0 µM
[11] = target: CSNK2A2 (human) (UniProt P19784); experiment: KINOMEscan competition binding; settings: compound 10.0 µM
Sequence of CSNK2A2 (human) (P19784 whole entry, looked up): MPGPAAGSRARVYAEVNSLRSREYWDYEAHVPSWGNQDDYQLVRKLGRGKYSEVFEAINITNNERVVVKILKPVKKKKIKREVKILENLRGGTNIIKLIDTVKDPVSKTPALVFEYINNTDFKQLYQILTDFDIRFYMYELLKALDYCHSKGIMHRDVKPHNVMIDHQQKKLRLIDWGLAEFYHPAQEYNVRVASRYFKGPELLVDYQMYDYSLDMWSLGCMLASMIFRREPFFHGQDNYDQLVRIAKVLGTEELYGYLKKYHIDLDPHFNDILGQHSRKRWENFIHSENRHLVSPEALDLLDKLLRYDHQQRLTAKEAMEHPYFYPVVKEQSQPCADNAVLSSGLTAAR

[12] = target: DAPK1 (human) (UniProt P53355); experiment: KINOMEscan competition binding; settings: compound 10.0 µM
[13] = target: DAPK2 (human) (UniProt Q9UIK4); experiment: KINOMEscan competition binding; settings: compound 10.0 µM
[14] = target: DAPK3 (human) (UniProt O43293); experiment: KINOMEscan competition binding; settings: compound 10.0 µM
[15] = target: GAK (human) (UniProt O14976); experiment: KINOMEscan competition binding; settings: compound 10.0 µM
[16] = target: HIPK1 (human) (UniProt Q86Z02); experiment: KINOMEscan competition binding; settings: compound 10.0 µM
[17] = target: JAK1 JH2 pseudokinase (human) (UniProt P23458); experiment: KINOMEscan competition binding; settings: compound 10.0 µM
[18] = target: MAP2K2 (human) (UniProt P36507); experiment: KINOMEscan competition binding; settings: compound 10.0 µM
[19] = target: MAP2K3 (human) (UniProt P46734); experiment: KINOMEscan competition binding; settings: compound 10.0 µM
[20] = target: MAP3K7 (human) (UniProt O43318); experiment: KINOMEscan competition binding; settings: compound 10.0 µM
Sequence of MAP3K7 (human) (O43318 whole entry, looked up): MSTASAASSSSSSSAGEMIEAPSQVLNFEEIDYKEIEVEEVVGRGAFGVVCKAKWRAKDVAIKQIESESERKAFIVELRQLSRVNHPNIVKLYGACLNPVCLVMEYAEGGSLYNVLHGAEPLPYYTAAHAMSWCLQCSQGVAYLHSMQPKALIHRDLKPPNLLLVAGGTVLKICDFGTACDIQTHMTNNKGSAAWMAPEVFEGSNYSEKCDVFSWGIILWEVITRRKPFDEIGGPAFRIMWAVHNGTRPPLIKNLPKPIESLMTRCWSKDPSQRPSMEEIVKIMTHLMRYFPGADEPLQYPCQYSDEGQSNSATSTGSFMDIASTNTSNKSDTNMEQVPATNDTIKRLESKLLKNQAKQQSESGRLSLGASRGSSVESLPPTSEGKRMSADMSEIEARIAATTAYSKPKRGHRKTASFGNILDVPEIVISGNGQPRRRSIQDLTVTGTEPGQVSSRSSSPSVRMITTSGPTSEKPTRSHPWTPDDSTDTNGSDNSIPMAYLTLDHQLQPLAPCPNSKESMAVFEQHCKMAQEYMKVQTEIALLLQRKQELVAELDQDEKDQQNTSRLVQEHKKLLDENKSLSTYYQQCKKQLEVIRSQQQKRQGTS

[21] = target: MAPK15 (human) (UniProt Q8TD08); experiment: KINOMEscan competition binding; settings: compound 10.0 µM
[22] = target: MAPKAPK5 (human) (UniProt Q8IW41); experiment: KINOMEscan competition binding; settings: compound 10.0 µM
[23] = target: MKNK2 (human) (UniProt Q9HBH9); experiment: KINOMEscan competition binding; settings: compound 10.0 µM
[24] = target: MYLK (human) (UniProt Q15746); experiment: KINOMEscan competition binding; settings: compound 10.0 µM
[25] = target: MYLK3 (human) (UniProt Q32MK0); experiment: KINOMEscan competition binding; settings: compound 10.0 µM
[26] = target: PIK3CG (human) (UniProt P48736); experiment: KINOMEscan competition binding; settings: compound 10.0 µM
[27] = target: PIM1 (human) (UniProt P11309); experiment: KINOMEscan competition binding; settings: compound 10.0 µM
Sequence of PIM1 (human) (P11309 whole entry, looked up): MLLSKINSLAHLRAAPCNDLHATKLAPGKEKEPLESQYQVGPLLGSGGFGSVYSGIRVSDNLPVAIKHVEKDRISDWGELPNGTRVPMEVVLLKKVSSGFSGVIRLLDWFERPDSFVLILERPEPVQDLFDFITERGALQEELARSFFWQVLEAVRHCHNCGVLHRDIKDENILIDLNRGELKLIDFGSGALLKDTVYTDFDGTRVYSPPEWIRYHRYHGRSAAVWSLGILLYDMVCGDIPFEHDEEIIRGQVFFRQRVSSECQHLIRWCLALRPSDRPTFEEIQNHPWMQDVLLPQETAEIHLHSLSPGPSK

[28] = target: PIM2 (human) (UniProt Q9P1W9); experiment: KINOMEscan competition binding; settings: compound 10.0 µM
Sequence of PIM2 (human) (Q9P1W9 whole entry, looked up): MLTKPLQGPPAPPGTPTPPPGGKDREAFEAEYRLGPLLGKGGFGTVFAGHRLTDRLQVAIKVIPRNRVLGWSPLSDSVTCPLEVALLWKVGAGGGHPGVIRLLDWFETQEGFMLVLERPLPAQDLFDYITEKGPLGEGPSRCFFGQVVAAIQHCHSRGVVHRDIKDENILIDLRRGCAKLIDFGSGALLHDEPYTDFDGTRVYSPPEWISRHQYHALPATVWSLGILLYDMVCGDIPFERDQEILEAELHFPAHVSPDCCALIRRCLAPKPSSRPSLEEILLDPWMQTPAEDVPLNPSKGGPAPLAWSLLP

[29] = target: PIM3 (human) (UniProt Q86V86); experiment: KINOMEscan competition binding; settings: compound 10.0 µM
[30] = target: PIP4K2B (human) (UniProt P78356); experiment: KINOMEscan competition binding; settings: compound 10.0 µM
[31] = target: PLK4 (human) (UniProt O00444); experiment: KINOMEscan competition binding; settings: compound 10.0 µM
[32] = target: RIOK2 (human) (UniProt Q9BVS4); experiment: KINOMEscan competition binding; settings: compound 10.0 µM
[33] = target: RIPK4 (human) (UniProt P57078); experiment: KINOMEscan competition binding; settings: compound 10.0 µM
Sequence of RIPK4 (human) (P57078 whole entry, looked up): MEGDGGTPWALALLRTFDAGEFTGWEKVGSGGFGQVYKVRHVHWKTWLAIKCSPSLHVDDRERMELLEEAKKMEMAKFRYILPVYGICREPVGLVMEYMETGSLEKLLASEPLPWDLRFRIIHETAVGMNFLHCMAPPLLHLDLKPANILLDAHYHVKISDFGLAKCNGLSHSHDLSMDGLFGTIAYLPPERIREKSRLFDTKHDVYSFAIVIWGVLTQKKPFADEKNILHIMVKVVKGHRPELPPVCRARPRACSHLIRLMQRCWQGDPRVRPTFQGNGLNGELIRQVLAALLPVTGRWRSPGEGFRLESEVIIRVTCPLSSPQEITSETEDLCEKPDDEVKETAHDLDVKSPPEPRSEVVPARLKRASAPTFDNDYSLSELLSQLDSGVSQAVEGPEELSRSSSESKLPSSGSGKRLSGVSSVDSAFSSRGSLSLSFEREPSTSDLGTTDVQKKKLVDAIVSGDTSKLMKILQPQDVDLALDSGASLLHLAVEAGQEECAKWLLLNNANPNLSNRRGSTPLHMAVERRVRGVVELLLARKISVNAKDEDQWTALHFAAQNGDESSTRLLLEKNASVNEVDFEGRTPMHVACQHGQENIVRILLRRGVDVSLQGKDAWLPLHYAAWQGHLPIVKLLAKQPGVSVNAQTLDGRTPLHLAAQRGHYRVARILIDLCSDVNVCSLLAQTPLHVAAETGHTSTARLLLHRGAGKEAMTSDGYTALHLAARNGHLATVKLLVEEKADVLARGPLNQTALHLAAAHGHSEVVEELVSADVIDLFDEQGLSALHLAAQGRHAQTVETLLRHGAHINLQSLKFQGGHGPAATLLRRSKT

[34] = target: ROCK2 (human) (UniProt O75116); experiment: KINOMEscan competition binding; settings: compound 10.0 µM
[35] = target: RPS6KA1 KD2 (human) (UniProt Q15418); experiment: KINOMEscan competition binding; settings: compound 10.0 µM
[36] = target: RPS6KA2 KD2 (human) (UniProt Q15349); experiment: KINOMEscan competition binding; settings: compound 10.0 µM
[37] = target: RPS6KA4 KD2 (human) (UniProt O75676); experiment: KINOMEscan competition binding; settings: compound 10.0 µM
[38] = target: RPS6KA6 KD2 (human) (UniProt Q9UK32); experiment: KINOMEscan competition binding; settings: compound 10.0 µM
[39] = target: STK17A (human) (UniProt Q9UEE5); experiment: KINOMEscan competition binding; settings: compound 10.0 µM
[40] = target: STK17B (human) (UniProt O94768); experiment: KINOMEscan competition binding; settings: compound 10.0 µM
[41] = target: STK24 (human) (UniProt Q9Y6E0); experiment: KINOMEscan competition binding; settings: compound 10.0 µM
Sequence of STK24 (human) (Q9Y6E0 whole entry, looked up): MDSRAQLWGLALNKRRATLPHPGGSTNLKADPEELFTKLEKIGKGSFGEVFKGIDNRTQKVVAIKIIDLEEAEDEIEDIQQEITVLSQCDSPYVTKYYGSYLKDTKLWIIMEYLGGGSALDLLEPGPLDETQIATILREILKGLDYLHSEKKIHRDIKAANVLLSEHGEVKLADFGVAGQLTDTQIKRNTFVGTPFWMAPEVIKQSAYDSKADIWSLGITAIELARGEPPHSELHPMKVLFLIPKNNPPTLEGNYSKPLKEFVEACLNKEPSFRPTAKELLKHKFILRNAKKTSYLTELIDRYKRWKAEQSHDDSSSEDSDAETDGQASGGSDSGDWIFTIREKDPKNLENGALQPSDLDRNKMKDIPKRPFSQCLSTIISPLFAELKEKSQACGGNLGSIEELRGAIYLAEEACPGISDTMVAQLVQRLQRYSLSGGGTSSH

[42] = target: TAOK1 (human) (UniProt Q7L7X3); experiment: KINOMEscan competition binding; settings: compound 10.0 µM
[43] = target: TAOK3 (human) (UniProt Q9H2K8); experiment: KINOMEscan competition binding; settings: compound 10.0 µM
[44] = target: TLK1 (human) (UniProt Q9UKI8); experiment: KINOMEscan competition binding; settings: compound 10.0 µM
Sequence of TLK1 (human) (Q9UKI8 whole entry, looked up): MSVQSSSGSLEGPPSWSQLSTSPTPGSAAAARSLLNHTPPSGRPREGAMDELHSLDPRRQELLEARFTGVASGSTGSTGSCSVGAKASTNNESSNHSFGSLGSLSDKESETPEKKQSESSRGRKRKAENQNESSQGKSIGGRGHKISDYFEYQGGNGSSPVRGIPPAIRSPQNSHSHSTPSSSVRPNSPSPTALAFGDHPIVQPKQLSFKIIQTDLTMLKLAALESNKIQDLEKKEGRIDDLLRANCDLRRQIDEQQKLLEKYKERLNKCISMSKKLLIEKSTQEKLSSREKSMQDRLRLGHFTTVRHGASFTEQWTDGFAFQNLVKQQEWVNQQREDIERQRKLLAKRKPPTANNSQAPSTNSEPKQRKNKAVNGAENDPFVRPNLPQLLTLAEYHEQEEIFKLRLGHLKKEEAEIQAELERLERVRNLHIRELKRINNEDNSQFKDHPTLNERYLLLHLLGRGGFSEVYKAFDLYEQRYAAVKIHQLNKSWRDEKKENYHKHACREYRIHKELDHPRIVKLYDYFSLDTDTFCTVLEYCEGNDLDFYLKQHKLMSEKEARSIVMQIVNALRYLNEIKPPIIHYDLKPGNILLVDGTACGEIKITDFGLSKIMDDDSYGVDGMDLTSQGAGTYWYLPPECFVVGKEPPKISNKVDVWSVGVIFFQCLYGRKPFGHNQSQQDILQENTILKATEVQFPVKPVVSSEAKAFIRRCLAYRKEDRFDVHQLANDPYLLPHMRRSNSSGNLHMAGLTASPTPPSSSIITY

[45] = target: TYK2 JH2 pseudokinase (human) (UniProt P29597); experiment: KINOMEscan competition binding; settings: compound 10.0 µM
[46] = target: PIM1 (human) (UniProt P11309); experiment: SelectScreen, TR FRET
[47] = target: PIM2 (human) (UniProt Q9P1W9); experiment: SelectScreen, TR FRET

## N=C1NC(=O)/C(=C/c2ccc(-c3ccc(C(=O)Nc4ccc(N5CCNCC5)cc4)cc3O)o2)S1
[1]
  kinase still bound, per cent of control: 31%
[2]
  kinase still bound, per cent of control: 19%
[3]
  kinase still bound, per cent of control: 32%
[4]
  kinase still bound, per cent of control: 18%
[5]
  kinase still bound, per cent of control: 3.2%
[6]
  kinase still bound, per cent of control: 2.4%
[7]
  kinase still bound, per cent of control: 2%
[8]
  kinase still bound, per cent of control: 25%
[9]
  kinase still bound, per cent of control: 5.8%
[10]
  kinase still bound, per cent of control: 20%
[11]
  kinase still bound, per cent of control: 19%
[12]
  kinase still bound, per cent of control: 12%
[13]
  kinase still bound, per cent of control: 14%
[14]
  kinase still bound, per cent of control: 15%
[15]
  kinase still bound, per cent of control: 29%
[16]
  kinase still bound, per cent of control: 0.65%
[17]
  kinase still bound, per cent of control: 26%
[18]
  kinase still bound, per cent of control: 33%
[19]
  kinase still bound, per cent of control: 30%
[20]
  kinase still bound, per cent of control: 8.6%
[21]
  kinase still bound, per cent of control: 0.95%
[22]
  kinase still bound, per cent of control: 32%
[23]
  kinase still bound, per cent of control: 27%
[24]
  kinase still bound, per cent of control: 32%
[25]
  kinase still bound, per cent of control: 15%
[26]
  kinase still bound, per cent of control: 2.1%
[27]
  kinase still bound, per cent of control: 5.6%
[28]
  kinase still bound, per cent of control: 0.5%
[29]
  kinase still bound, per cent of control: 9%
[30]
  kinase still bound, per cent of control: 34%
[31]
  kinase still bound, per cent of control: 23%
[32]
  kinase still bound, per cent of control: 29%
[33]
  kinase still bound, per cent of control: 5.5%
[34]
  kinase still bound, per cent of control: 21%
[35]
  kinase still bound, per cent of control: 21%
[36]
  kinase still bound, per cent of control: 25%
[37]
  kinase still bound, per cent of control: 3.4%
[38]
  kinase still bound, per cent of control: 27%
[39]
  kinase still bound, per cent of control: 0.1%
[40]
  kinase still bound, per cent of control: 0.6%
[41]
  kinase still bound, per cent of control: 25%
[42]
  kinase still bound, per cent of control: 5.4%
[43]
  kinase still bound, per cent of control: 7.4%
[44]
  kinase still bound, per cent of control: 14%
[45]
  kinase still bound, per cent of control: 10%
[46]
  IC50: 128 nM
[47]
  IC50: 144 nM
